# Reference: patent publication US12606829B2, “Compositions for herpesvirus transcriptional feedback circuit disruption and uses thereof” (priority 2018, dated 2026)
# Oligonucleotides are written 5' to 3', each unit as a sugar letter and its base; * is a phosphorothioate linkage, no mark a phosphodiester; rarer units and linkages stand in square brackets, end groups in braces. Plain capitals give the bases only. d = 2'-deoxy (DNA)
# Tests used:
# CMV (TB40E-IE86-YFP) = assay: Single-round viral titering of CMV in ARPE-19 cells (TCID50); type: cell-based
# Excerpt: (§1) FIG. 7: Feedback circuit disruption interferes with viral replication even at high MOI and limits the evolution of resistance. (a) Flow cytometry of ARPE-19 cells nucleofected with the 28 bp dsDNA that titrates IE86 (C-DOT^C) or scrambled dsDNA sequence (C-DOT^Scram) and infected with a clinically derived CMV (TB40E) encoding an IE86-YFP (MOI=0.1) then analyzed at 2 days post infection (dpi). (b) Flow cytometry of ARPE-19 cells nucleofected with a 29 bp DNA to titrate IE175 (C-DOT^H) or scrambled dsDNA sequence (C-DOT^Scram) and infected with HSV-1 (17syn+strain) encoding an IE175-YFP (MOI=0.1) then analyzed at 2 dpi. (c) Single-round viral titering of CMV in the presence of 100 μM GCV, PBS, or 25 μM C-DOT^C (or C-DOT^Scram) at 4-days post infection under different initial MOIs. (d) Single-round viral titering of HSV-1 in presence of 100 μM ACV or 25 μM C-DOT^H (or C-DOT^Scram) at 4-days post infection under different HSV-1 MOIS. (e) Schematic of the continuous-culture experiment; ARPE-19 cells (+/−C-DOT) were infected with CMV or HSV-1 (0.1 MOI) and at 4-day post infection, supernatant was collected and was used to infect naïve ARPE-19 cells +/−C-DOT until day 60. (f) Continuous culture titers for CMV (TB40E-IE86-YFP) in the presence of C-DOT^C (red) or mock treatment (black). […]
# [1] = system: CMV (TB40E-IE86-YFP or AD169); assay: C-DOT antiviral effect under high and low cGAS-STING expression (MRC-5, ARPE-19); type: cell-based; conditions: MRC-5 (high) and ARPE-19 (low cGAS-STING activity), 4 days post infection
# Procedure: However, to verify that C-DOT activity is independent of cGAS-STING, C-DOTs were tested under conditions of high and low cGAS-STING expression and observed little difference in C-DOT antiviral effects and no effects for C-DOT^Scram in either setting (FIG. 15b).
# Total RNA was extracted from cells and corresponding cDNA was quantified by qPCR using sequence specific primers for TLR9 (see Extended Data Table 1 for sequences). […] ARPE-19 (low cGAS-STING activity) and MRC-5 cells (high cGAS-STING activity) were nucleofected with C-DOTE or mock and infected with TB40E-IE86-YFP or AD169, respectively. Virus titers were assayed by TCID-50 at 4 days post infection. (c)C-DOT^C decreases CMV titers below detection by day 60 in the continuous culture setting. CMV titers from the continuous culture experiment followed out to day 60. ARPE-19 cells (+/−25 μM C-DOT) were infected with CMV (TB40E-IE86-YFP; MOI=0.1). (d) CMV and HSV-1 rapidly acquire resistance to approved antivirals (fomivirsen and acyclovir). Viral titers from the continuous culture experiment in the presence or absence of fomivirsen. Mock- or fomivirsen-nucleofected ARPE-19 cells were infected with CMV (TB40E-IE86-YFP; MOI=0.1); at 4 days post infection, supernatants were transferred to infect new naïve ARPE-19 cells (+/−fomivirsen) and transfers repeated every 4 days until day 44. […]
# HSV-1 (17syn+ IE175-YFP) = assay: Single-round viral titering of HSV-1 in ARPE-19 cells (TCID50); type: cell-based
# Excerpt: as §1
# CMV = assay: Cell-death pathway analysis in the context of CMV infection; type: cell-based
# Excerpt: (§2) FIG. 10 provides a cell-death pathway analysis (pharmacological inhibitors). The mechanism of C-DOT-induced cell death (in the context of the virus infection) was identified using three separate approaches: (i) RNAseq: to identify misregulated expression patterns and the cell-death pathways these group into (ii) Antibody staining: for specific cell-death pathway markers (iii) Pharmacological inhibitors: of cell-death pathways to test which mitigate C-DOT-induced death. […] C-DOT alone caused cell death in CMV and HSV-1.
# HSV-1 = assay: Cell-death pathway analysis in the context of HSV-1 infection; type: cell-based
# Excerpt: as §2
# MCMV = MCMV replication in NIH 3T3 mouse fibroblast cells (TCID50); type: cell-based, murine CMV; conditions: NIH 3T3, MOI=0.1, 4 days post infection
# Procedure: (§3) FIG. 14: C-DOTs can be engineered to interfere with a broad range of species-specific herpesviruses including drug-resistant strains. (a) Sequence homology for the crs of human CMV, rhesus CMV (RhCMV), and murine CMV (MCMV). Sequence homology and divergence are represented. […] NIH 3T3 mouse fibroblast cells were nucleofected with either 28 bp C-DOT^MCMY, or C-DOT^Scram, or mock nucleofected 24 hours prior to MCMV infection at MOI=0.1. 4 days post infection, virus titers were assayed by TCID50. […] (Upper) Fluorescent micrographs, 4-day post nucleofection, of Telo-RF cells nucleofected with either a 28 bp C-DOT^RhCMV, or a C-DOT^Scram, or mock nucleofected and then infected with RhCMV (RhCMV 68.1 GFP) at MOI=0.1. (Lower) Virus titers assayed by TCID-50 at 4 days post infection. […] MRC-5 cells were nucleofected with C-DOT^C or C-DOT^Scram then infected 24-hour later with either the parent CMV AD169 (control) or GCV^R or FOS^R strains (CMV GDGrK17, CMV GDGrP53, CMV 759rD100-1, CMV PFArD100). Virus titers were assayed by TCID-50 at 4 days post infection.
# RhCMV 68.1 GFP = assay: RhCMV replication in Telo-RF cells (TCID-50); type: cell-based, rhesus CMV; conditions: MOI=0.1, 4 days post infection
# Procedure: as §3
compound,measurement,setting,value
"C-DOT^Scram: scrambled dsDNA sequence, phosphorothioated, negative control; Fw A*TACCGCGTAA*CCAGAGGT*ATATAGGT*C (SEQ ID NO: 40) (sense ATACCGCGTAACCAGAGGTATATAGGTC; antisense GACCTATATACCTCTGGTTACGCGGTAT; phosphorothioate; (1)..(2) A Phosphorothioate bond is present between the nucleotides at positions 1 and 2; (11)..(12) A Phosphorothioate bond is present between the nucleotides at positions 11 and 12; (19)..(20) A Phosphorothioate bond is present between the nucleotides at positions 19 and 20; (27)..(28) A Phosphorothioate bond is present between the nucleotides at positions 27 and 28; (1)..(2) A Phosphorothioate bond is present between the nucleotides at positions 1 and 2.; (9)..(10) A Phosphorothioate bond is present between the nucleotides at positions 9 and 10.; (17)..(18) A …)",antiviral effects,CMV (TB40E-IE86-YFP),did not exhibit antiviral effects
same,antiviral effects under high and low cGAS-STING expression,[1],no effects
same,antiviral effects,HSV-1 (17syn+ IE175-YFP); HSV-1,did not exhibit antiviral effects
same,cell death,CMV,minimal cell death
same,cell death,HSV-1,minimal cell death
"Nc1nc2c(ncn2COCCO)c(=O)[nH]1 [ACV, acyclovir]",reduction in viral replication,"HSV-1 (17syn+ IE175-YFP); HSV-1, MOI=2, 100 μM ACV or 25 μM C-DOT^H, 4 days post infection",35-70 ×
"Nc1nc(O)c2ncn(COC(CO)CO)c2n1 [GCV, ganciclovir]",reduction in viral replication,"CMV (TB40E-IE86-YFP); MOI=2, 100 μM GCV or 25 μM C-DOT^C, 4 days post infection",35-70 ×
"C-DOT^MCMV: 28 bp dsDNA with murine CMV crs; Fw G*ACAGACCA*GCGTCGG*TACCGTACACG*A (SEQ ID NO: 9) (sense dG*dAdCdAdGdAdCdCdA*dGdCdGdTdCdGdG*dTdAdCdCdGdTdAdCdAdCdG*dA; antisense TCGTGTACGGTACCGACGCTGGTCTGTC; antisense: DNA, backbone not given here)",effect on MCMV replication,MCMV,interferes with MCMV replication
"C-DOT^RhCMV: 28 bp dsDNA with rhesus CMV crs; Fw G*ACAGATCGT*TTAGGGAAC*CGTACACG*A (SEQ ID NO: 8) (sense dG*dAdCdAdGdAdTdCdGdT*dTdTdAdGdGdGdAdAdC*dCdGdTdAdCdAdCdG*dA; antisense TCGTGTACGGTTCCCTAAACGATCTGTC; antisense: DNA, backbone not given here)",effect on RhCMV replication,RhCMV 68.1 GFP,downregulates RhCMV replication
